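The compound was tested at five concentrations on cells cultured in 96-well plates, with a 48-hour exposure period. Definition used: TGI = concentration required for complete inhibition of growth.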 Bounds are passed on as bounds.

Test systems include IGROV1 ovarian; HL-60(TB) leukemia; EKVX NSCLC; LOX IMVI melanoma; NCI/ADR-RES ovarian; UACC-257 melanoma; BT-549 breast.
Test in all cases: NCI tumour cell line growth inhibition, 48 h

`CCSC1=N/C(=C\c2ccco2)C(Cl)=N1`: the TGI with IGROV1 ovarian, with HL-60(TB) leukemia, with EKVX NSCLC, with LOX IMVI melanoma, in the experiment on NCI/ADR-RES ovarian and in the experiment on UACC-257 melanoma was more than 100 µM throughout. The TGI with BT-549 breast was more than 100 µM.

Consider `CCOC(=O)C1C(c2ccc(OC)cc2)c2c([nH][nH]c2=O)CC1(O)OCC` (stereo not given), for which the TGI with IGROV1 ovarian, with HL-60(TB) leukemia, in the experiment on EKVX NSCLC, in the experiment with LOX IMVI melanoma, in the experiment on NCI/ADR-RES ovarian and in the experiment on UACC-257 melanoma was more than 100 µM throughout. In the experiment on BT-549 breast, this molecule yielded a TGI of more than 100 µM.

Consider `O=c1oc2ccccc2c(O)c1C(c1ccc(/C=C/c2ccccc2)cc1)c1c(O)c2ccccc2oc1=O`, for which the TGI was more than 100 µM in the experiment on IGROV1 ovarian; more than 100 µM in the experiment with HL-60(TB) leukemia; more than 100 µM in the experiment with EKVX NSCLC; 73.3 µM in the experiment with LOX IMVI melanoma; 60.3 µM with NCI/ADR-RES ovarian; more than 100 µM in the experiment on UACC-257 melanoma. Also, in the experiment with BT-549 breast, the TGI worked out at 56.2 µM.

In the case of `CN(/N=C/c1ccccn1)C1=NCCCCN1`, the TGI in the experiment on IGROV1 ovarian, in the experiment with HL-60(TB) leukemia, in the experiment on EKVX NSCLC, in the experiment on LOX IMVI melanoma, in the experiment on NCI/ADR-RES ovarian and in the experiment on UACC-257 melanoma was more than 100 µM in each case. The molecule also gave a TGI in the experiment with BT-549 breast of more than 100 µM.

For the molecule `CC(=O)NC1C(O)C(O)C(CO)OC1n1ncc(=O)[nH]c1=O` (stereo not given), the TGI in the experiment on IGROV1 ovarian, with HL-60(TB) leukemia, in the experiment with EKVX NSCLC, in the experiment on LOX IMVI melanoma, in the experiment with NCI/ADR-RES ovarian and in the experiment with UACC-257 melanoma was more than 100 µM each time. In the experiment with BT-549 breast, this molecule returned a TGI of more than 100 µM.

Regarding `CC1(C)CCCCCCC2OC2CCCCCC(C)(C)C1=O` (stereo not given), the TGI in the experiment with IGROV1 ovarian is more than 100 µM; with HL-60(TB) leukemia, 57 µM; with EKVX NSCLC it was more than 100 µM; in the experiment on LOX IMVI melanoma, more than 100 µM; in the experiment on NCI/ADR-RES ovarian it was more than 88.2 µM; in the experiment on UACC-257 melanoma, more than 93.5 µM. The TGI in the experiment on BT-549 breast is more than 76.6 µM.

As to `CC(=O)OC1COC(n2c(-c3ccc(Cl)cc3)cc(-c3ccccc3)c(C#N)c2=S)C(OC(C)=O)C1OC(C)=O` (stereo not given), the TGI is more than 31.6 µM with IGROV1 ovarian; more than 89.9 µM in the experiment with HL-60(TB) leukemia; more than 100 µM with EKVX NSCLC; 15.5 µM in the experiment on LOX IMVI melanoma; 33.8 µM in the experiment on NCI/ADR-RES ovarian; more than 100 µM in the experiment with UACC-257 melanoma. For the same molecule, in the experiment with BT-549 breast, the TGI was more than 81.8 µM.

`CC1=NN(c2nc(N)nc(CSCc3nc(N)nc(N(C)C)n3)n2)C(C)(C)C1`: the TGI in the experiment on IGROV1 ovarian, in the experiment with HL-60(TB) leukemia, in the experiment with EKVX NSCLC, with LOX IMVI melanoma, in the experiment with NCI/ADR-RES ovarian and with UACC-257 melanoma was more than 100 µM each time. Further, the TGI in the experiment on BT-549 breast was more than 100 µM.

Turning to `COC(=O)C(=O)C(C(=O)C(=O)Nc1ccccc1C(C)=O)c1nc2ccc(C(=O)c3ccccc3)cc2[nH]c1=O` (stereo not given), the TGI in the experiment on IGROV1 ovarian, in the experiment on HL-60(TB) leukemia, with EKVX NSCLC, in the experiment on LOX IMVI melanoma, with NCI/ADR-RES ovarian and with UACC-257 melanoma was more than 100 µM in each case. Further, in the experiment on BT-549 breast, the TGI was more than 100 µM.

Take `N#Cc1sc2c(c1OC(=O)c1cccs1)c(=O)n(-c1ccccc1)c(=S)n2-c1ccccc1`: the TGI in the experiment on IGROV1 ovarian was 39.4 µM; in the experiment on HL-60(TB) leukemia it was 47.5 µM; with EKVX NSCLC, 89.9 µM; in the experiment with LOX IMVI melanoma, 54.2 µM; in the experiment with NCI/ADR-RES ovarian, 50.1 µM; with UACC-257 melanoma, more than 100 µM. In the experiment on BT-549 breast, the TGI worked out at 77.8 µM.

On to `CCOC(=O)C(NC(=O)CC(C)C)(Nc1ccc(S(=O)(=O)Nc2nc(C)cc(C)n2)cc1)C(F)(F)F` (stereo not given), for which the TGI with IGROV1 ovarian, in the experiment with HL-60(TB) leukemia, with EKVX NSCLC, in the experiment with LOX IMVI melanoma, in the experiment with NCI/ADR-RES ovarian and in the experiment on UACC-257 melanoma was more than 100 µM in each case. In the experiment on BT-549 breast, the TGI was more than 100 µM.

With `O=C(O)c1ccc2c(c1)CC1(C2)Cc2ccccc2C1=O` (stereo not given), the TGI in the experiment with IGROV1 ovarian, in the experiment with HL-60(TB) leukemia, in the experiment with EKVX NSCLC, in the experiment on LOX IMVI melanoma, with NCI/ADR-RES ovarian and in the experiment on UACC-257 melanoma was more than 100 µM each time. The molecule further registered a TGI with BT-549 breast of more than 100 µM.

Regarding `Cn1c(Nc2ccccc2)c(C=Nc2ccccc2)c(=O)n(C)c1=O`, the TGI with IGROV1 ovarian, in the experiment with HL-60(TB) leukemia, with LOX IMVI melanoma, in the experiment with NCI/ADR-RES ovarian, in the experiment on UACC-257 melanoma and in the experiment with BT-549 breast was more than 100 µM throughout.

For `COc1cc(C2c3cc4c(cc3OC(Nc3ccccc3)C2C)OCO4)cc(OC)c1OC` (stereo not given), the TGI in the experiment on IGROV1 ovarian was more than 100 µM; in the experiment with HL-60(TB) leukemia, 0.593 µM; in the experiment with EKVX NSCLC it was more than 88.5 µM; with LOX IMVI melanoma, more than 100 µM; in the experiment with NCI/ADR-RES ovarian, more than 100 µM; in the experiment on UACC-257 melanoma it was more than 86.2 µM. In the experiment with BT-549 breast, this molecule showed a TGI of more than 90.9 µM.

Take `O=c1c2cc([N+](=O)[O-])ccc2n2n1Cc1ccccc1C2`: the TGI in the experiment on IGROV1 ovarian, with HL-60(TB) leukemia, in the experiment on EKVX NSCLC, in the experiment on LOX IMVI melanoma, in the experiment with NCI/ADR-RES ovarian and with UACC-257 melanoma was more than 100 µM each time. The same molecule came in with a TGI with BT-549 breast of more than 100 µM.

With `COc1c2ccccc2c(OC)c2nc(C)ccc12`, the TGI in the experiment with IGROV1 ovarian is more than 100 µM; in the experiment on HL-60(TB) leukemia, 61.8 µM; in the experiment on EKVX NSCLC, more than 100 µM; in the experiment with LOX IMVI melanoma it was 56.1 µM; in the experiment with NCI/ADR-RES ovarian, more than 100 µM; in the experiment with UACC-257 melanoma, more than 100 µM. Besides, the TGI with BT-549 breast is more than 100 µM.

For `COc1ccc(-c2c(CN3CCOCC3)sc3nc4ccccc4n23)cc1`, the TGI in the experiment with IGROV1 ovarian is more than 86.8 µM; in the experiment with HL-60(TB) leukemia, more than 73.2 µM; in the experiment with EKVX NSCLC, more than 57.4 µM; in the experiment on LOX IMVI melanoma, more than 100 µM; in the experiment on NCI/ADR-RES ovarian, more than 42.8 µM; in the experiment with UACC-257 melanoma it was more than 100 µM. Besides, in the experiment on BT-549 breast, the TGI is more than 100 µM.

Consider `Nc1cn(Cc2ccccc2)c2nc(/C=C3/C=CC=CC3=O)c(O)n12`, for which the TGI in the experiment on IGROV1 ovarian, in the experiment with HL-60(TB) leukemia, in the experiment on EKVX NSCLC, with LOX IMVI melanoma, in the experiment on NCI/ADR-RES ovarian and in the experiment on UACC-257 melanoma was more than 100 µM throughout. In the experiment on BT-549 breast, this molecule displayed a TGI of more than 100 µM.

These data come from PubChem BioAssay (NCI).
